Test results taken from patent publication US20250313563A1, “GLYCOGEN SYNTHASE KINASE 3 INHIBITORS AND USES THEREOF” (The Broad Institute, Inc., priority 2022, published 2025).
Like-named read-outs stand apart in the source and are kept apart here.

Experiments:
[1] = biological target: GSK3b (GST-full length GSK3b) (Homo sapiens (Human), UniProt P49841); experiment: GSK3b TR-FRET kinase assay; assay type: biochemical
Summary of the method: (§1)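 IC50 came from the normalized 665/615 nm TR-FRET ratio plotted against log compound concentration. The Tb-labelled pSer641 antibody and streptavidin-d2 detected phosphorylation of biotinylated S645-primed glycogen synthase peptide (200 nM) by 1 nM full-length GST-kinase. ATP was 4 μM for α, 2 μM for β, or 1 mM.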

[2] = biological target: GSK3α (GST-full length GSK3α) (Homo sapiens (Human), UniProt P49840); experiment: GSK3α TR-FRET kinase assay; assay type: biochemical
Sequence of GSK3α (GST-full length GSK3α) (P49840 whole entry): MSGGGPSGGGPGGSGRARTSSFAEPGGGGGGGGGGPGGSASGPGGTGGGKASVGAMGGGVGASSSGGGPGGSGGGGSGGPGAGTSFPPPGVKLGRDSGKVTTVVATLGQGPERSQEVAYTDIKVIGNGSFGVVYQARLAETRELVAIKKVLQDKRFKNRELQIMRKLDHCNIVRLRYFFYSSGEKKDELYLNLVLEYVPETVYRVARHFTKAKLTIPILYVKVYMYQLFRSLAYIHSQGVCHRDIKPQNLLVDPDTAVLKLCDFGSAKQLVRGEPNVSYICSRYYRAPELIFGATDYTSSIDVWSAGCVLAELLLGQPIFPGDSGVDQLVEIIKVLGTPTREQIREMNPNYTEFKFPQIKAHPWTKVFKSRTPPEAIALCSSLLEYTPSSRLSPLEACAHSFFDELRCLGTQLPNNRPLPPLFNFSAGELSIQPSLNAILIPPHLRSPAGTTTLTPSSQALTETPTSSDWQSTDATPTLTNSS
Summary of the method: as §1

[3] = 1 nM GSK3b, 2 μM ATP, 30 minute preincubation, read-out: GSK3-B TR-FRET BIOCHEMICAL (TR-FRET), IC50
[4] = 1 nM GSK3α, 4 μM ATP, 30 minute preincubation, read-out: GSK3-A TR-FRET BIOCHEMICAL (TR-FRET), IC50
[5] = 1 nM GSK3b, 2 μM ATP, 30 minute preincubation, Table 16, read-out: GSK3-B TR-FRET BIOCHEMICAL (TR-FRET), IC50
[6] = 1 nM GSK3α, 4 μM ATP, 30 minute preincubation, Table 16, read-out: GSK3-A TR-FRET BIOCHEMICAL (TR-FRET), IC50
[7] = 1 nM GSK3b, 2 μM ATP, 30 minute preincubation, Table 16, read-out: GSK3-B TR-FRET BIOCHEMICAL (TR-FRET)
[8] = 1 nM GSK3α, 4 μM ATP, 30 minute preincubation, Table 16, read-out: GSK3-A TR-FRET BIOCHEMICAL (TR-FRET)
[9] = GSK3-B (TR-FRET 1 mM ATP), GMean, IC50, 1 mM ATP, geometric mean
[10] = GSK3-A (TR-FRET 1 mM ATP), GMean, IC50, 1 mM ATP, geometric mean

Sequence of GSK3b (GST-full length GSK3b) (P49841 whole entry): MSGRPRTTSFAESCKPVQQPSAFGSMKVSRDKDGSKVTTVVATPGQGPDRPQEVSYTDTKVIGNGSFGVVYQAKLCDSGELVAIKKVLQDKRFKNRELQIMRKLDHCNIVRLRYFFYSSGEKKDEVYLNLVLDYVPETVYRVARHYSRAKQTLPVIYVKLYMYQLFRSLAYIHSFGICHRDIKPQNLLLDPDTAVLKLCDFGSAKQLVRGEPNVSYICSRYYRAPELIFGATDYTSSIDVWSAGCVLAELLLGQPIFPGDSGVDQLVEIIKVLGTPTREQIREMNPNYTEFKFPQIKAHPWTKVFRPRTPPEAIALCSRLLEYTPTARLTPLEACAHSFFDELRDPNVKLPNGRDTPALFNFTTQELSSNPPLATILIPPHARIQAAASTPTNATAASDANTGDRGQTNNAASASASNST

Structure (SMILES) | IC50 [1, 5] | IC50 [2, 6] | IC50 [1, 7] | IC50 [2, 8] | other results
CC1(C)CC(=O)C2=C(C1)Nc1n[nH]cc1[C@@]21CCOC2(CCC2)C1 [Compound 897755] |  |  |  |  | IC50 [1, 3]: 1000 to 5000 nM; IC50 [2, 4]: 1000 to 5000 nM
CC1(C)CC(=O)C2=C(C1)Nc1n[nH]cc1[C@]21CCOC2(CCC2)C1 [Compound 897756] |  |  |  |  | IC50 [1, 3]: 100 to 1000 nM; IC50 [2, 4]: 100 to 1000 nM
C[C@@H]1C[C@]2(CCO1)C1=C(CC(C)(C)CC1=O)Nc1n[nH]cc12 [Compound 899559] | 1000 to 5000 nM | 100 to 1000 nM |  |  | 
C[C@H]1C[C@@]2(CCO1)C1=C(CC(C)(C)CC1=O)Nc1n[nH]cc12 [Compound 899560] |  |  | 1000 to 5000 nM | 100 to 1000 nM | 
CC1(C(F)(F)F)CC(=O)C2=C(C1)Nc1n[nH]cc1C21CCOCC1 (stereo not shown) [Compound 901458] |  |  | 100 to 1000 nM | 100 to 1000 nM | 
O=C1C2=C(Nc3n[nH]cc3C23CCOCC3)C2CCC1C2 (stereo not shown) [Compound 901464] |  |  | 100 to 1000 nM | 100 to 1000 nM | 
CC1(C)CC(=O)C2=C(C1)Nc1n[nH]cc1C21CCN(S(=O)(=O)c2ccccc2F)CC1 [Compound 901465] |  |  | ≤ 100 nM | ≤ 100 nM | IC50 [1, 9]: 100 to 1000 nM; IC50 [2, 10]: ≤ 100 nM
CC1(C)CC(=O)C2=C(C1)Nc1n[nH]cc1C21CCN(S(=O)(=O)c2cccc(F)c2)CC1 [Compound 901466] |  |  | ≤ 100 nM | ≤ 100 nM | 
Cn1cc(S(=O)(=O)N2CCC3(CC2)C2=C(CC(C)(C)CC2=O)Nc2n[nH]cc23)cn1 [Compound 901467] |  |  | ≤ 100 nM | ≤ 100 nM | IC50 [1, 9]: 1000 to 5000 nM; IC50 [2, 10]: 100 to 1000 nM
COc1cccc(S(=O)(=O)N2CCC3(CC2)C2=C(CC(C)(C)CC2=O)Nc2n[nH]cc23)c1 [Compound 901468] |  |  | ≤ 100 nM | ≤ 100 nM | IC50 [1, 9]: 1000 to 5000 nM; IC50 [2, 10]: 100 to 1000 nM
COc1ccc(S(=O)(=O)N2CCC3(CC2)C2=C(CC(C)(C)CC2=O)Nc2n[nH]cc23)cc1 [Compound 901469] |  |  |  |  | IC50 [1, 9]: 100 to 1000 nM; IC50 [2, 10]: 100 to 1000 nM
CC1(C)CC(=O)C2=C(C1)Nc1n[nH]cc1C21CCN(S(=O)(=O)C2CC2)CC1 [Compound 901470] |  |  | ≤ 100 nM | ≤ 100 nM | IC50 [1, 9]: 100 to 1000 nM; IC50 [2, 10]: 100 to 1000 nM
Cn1ccc(S(=O)(=O)N2CCC3(CC2)C2=C(CC(C)(C)CC2=O)Nc2n[nH]cc23)n1 [Compound 901471] |  |  | ≤ 100 nM | ≤ 100 nM | IC50 [1, 9]: 1000 to 5000 nM; IC50 [2, 10]: 100 to 1000 nM
CO[C@H]1C[C@@]2(C1)C1=C(CC(C)(C)CC1=O)Nc1n[nH]cc12 [Compound 901472] | > 5000 nM | > 5000 nM |  |  | 
CO[C@H]1C[C@]2(C1)C1=C(CC(C)(C)CC1=O)Nc1n[nH]cc12 [Compound 901473] | > 5000 nM | > 5000 nM |  |  | 
CC1(C)CC(=O)C2=C(C1)Nc1n[nH]cc1C21CN(S(=O)(=O)c2ccccc2)C1 [Compound 901474] |  |  | ≤ 100 nM | ≤ 100 nM | 
O=C1C[C@@]2(CCOC2)CC2=C1C1(CCOCC1)c1c[nH]nc1N2 [Compound 901475] |  |  | 100 to 1000 nM | 100 to 1000 nM | 
O=C1C[C@]2(CCOC2)CC2=C1C1(CCOCC1)c1c[nH]nc1N2 [Compound 901476] |  |  | 100 to 1000 nM | 100 to 1000 nM | 
O=C1C[C@H](C(F)(F)F)CC2=C1C1(CCOCC1)c1c[nH]nc1N2 [Compound 901477] | 1000 to 5000 nM | 100 to 1000 nM |  |  | 
O=C1C[C@@H](C(F)(F)F)CC2=C1C1(CCOCC1)c1c[nH]nc1N2 [Compound 901478] | 100 to 1000 nM | 100 to 1000 nM |  |  | 
CCC1(c2cccc(OC)c2)C2=C(CC(C)(C)CC2=O)Nc2n[nH]c(C(=O)OC)c21 (stereo not shown) [Compound 901480] | 100 to 1000 nM | ≤ 100 nM |  |  | 
CCC1(c2cccc(N3CC(C)(C)C3C(C)C)c2)C2=C(CC(C)(C)CC2=O)Nc2n[nH]cc21 (stereo not shown) [Compound 902969] | 1000 to 5000 nM | 100 to 1000 nM |  |  | 
CCC1(c2cccc(N(C)c3ccncn3)c2)C2=C(CC(C)(C)CC2=O)Nc2n[nH]cc21 (stereo not shown) [Compound 902970] | 100 to 1000 nM | ≤ 100 nM |  |  | 
CCC1(c2cccc(N(C)c3cnccn3)c2)C2=C(CC(C)(C)CC2=O)Nc2n[nH]cc21 (stereo not shown) [Compound 902971] | ≤ 100 nM | ≤ 100 nM |  |  | 
CC1(C)CC(=O)C2=C(C1)Nc1n[nH]cc1[C@@]21CCOC2(CCCC2)C1 [Compound 907326] |  |  |  |  | IC50 [1, 3]: 1000 to 5000 nM; IC50 [2, 4]: 100 to 1000 nM
CC1(C)CC(=O)C2=C(C1)Nc1n[nH]cc1[C@]21CCOC2(CCCC2)C1 [Compound 907327] |  |  |  |  | IC50 [1, 3]: 1000 to 5000 nM; IC50 [2, 4]: 100 to 1000 nM
CC[C@@H]1C[C@]2(CCO1)C1=C(CC(C)(C)CC1=O)Nc1n[nH]cc12 [Compound 907328] | 1000 to 5000 nM | 100 to 1000 nM |  |  | 
